Data set [1] relates to NAD(P)H quinone oxidoreductase 1 (NQO1). The data set can be described thus: Prochaska microtiter plate bioassay, NQO1 induction in Hepa-1c1c7 cells. It counts as cell-based, mouse. To be noted: Mus musculus, Hepa-1c1c7, 48 h, Hepa-1c1c7 cells, 48 h; read-out: CD (concentration required to double the NQO1 level). The method, then: The effect of shogaol thiophene compounds (STCs) on NRF2 activation is determined by measuring the NAD(P)H quinone oxidoreductase 1 (NQO1) inducer activity, as reported in our previous studies. The mouse hepatoma cells (Hepa-1c1c7, 1 × 10^4 per well) were incubated with STCs (10, 1, 0.1, 0.01, and 0.001 µM) for 48 h. The cells were lysed using digitonin (0.8 mg/mL and 2 mM EDTA; Acros, UK), and the protein concentration was determined using Bradford’s assay kit (Thermo Fisher Scientific, USA). The cell lysate was incubated with a reaction mixture of 0.5 M Tris-Cl buffer (Calbiochem, USA), 7.5 mM FAD (Acros, UK), 150 mM glucose-6-phosphate (Calbiochem, San Diego, CA, USA), 2 U/mL glucose-6-phosphate dehydrogenase (Calbiochem, USA), 50 mM NADP+ (Sigma Aldrich, USA), 25 mM menadione (Sigma Aldrich, USA), and 0.7 mM MTT (Sigma Aldrich, USA) at 37 °C for 5 min. The absorbance was recorded at 610 nm using a microplate reader (Spectramax M3, Molecular Devices, San Jose, CA, USA), and the values were normalised to the total protein content.

In another data set the target is T1, KEAP1-NRF2 interaction (Homo sapiens, UniProt Q14145).
T1 construct: purchased BPS Bioscience
The data set can be described thus: KEAP1-Nrf2 inhibitor screening, fluorescence polarisation assay. The class given is binding. As to conditions: KEAP1 Kelch domain, read-out: IC50, NRF2-KEAP1 inhibition. The method, then:
The KEAP1-Nrf2 inhibitor screening assay kit (BPS Bioscience, San Diego, California, USA) was used to determine the effect of STCs in inhibiting KEAP1-NRF2 interaction following the manufacturer’s protocol and our reported method. The STC solutions were diluted with the assay buffer, and 5 μL of the STC solutions were incubated at room temperature for 30 min in the peptide mixture containing 0.5 μL NRF2 peptide (1 μM) and 20 μL KEAP1 (15 ng/μL). The fluorescence polarisation (FP) was measured using a microplate reader at λex 485 nm and λem 530 nm. The following equation was used to determine the per cent KEAP1-NRF2 inhibitory effect of the STCs. Keap1−Nrf2 inhbitory activity %=1−Relative FP of STC/Relative FP of postive control×100
For orientation: In fluorescence polarisation assays a small probe gives low polarisation when free and higher when bound to something large.

For a further data set, the target named is T2, GSK-3β (Homo sapiens, UniProt P49841).
T2 construct: purchased Promega
The data set can be described thus: GSK-3β kinase ADP-Glo assay. As to conditions: ATP 25 μM, read-out: IC50, GSK-3β enzyme activity. It counts as biochemical. The method, then: The effect of STCs on GSK-3β activity was determined using GSK-3β kinase enzyme (Promega, WI, USA) and ADP-Glo^TM kinase assay (Promega, USA) following the manufacturer’s protocol and reported method. The STCs were dissolved in the kinase buffer to prepare different concentrations (10, 1, 0.1, 0.01, and 0.001 μM). One microliter of the test compounds was added to each well (384 well plate), followed by the addition of 2 μL of GSK-3β kinase (1 ng), 2 μL of the GSK-3β substrate (0.4 μg), and 2 μL of the ATP (25 μM), and incubated for 60 min. Then, 5 μL of ADP-Glo^TM reagent was added and incubated further for 40 min. Then 10 μL of kinase detection reagent was added and incubated for 30 min. The luminescence was recorded using a SpectraMax®L microplate reader (Molecular Devices, San Jose, CA, USA). The IC50 (concentration of the test compound required to produce half-maximal […]) from dose-response curves using non-linear regression analysis using GraphPad Prism (9.5.0; San Diego, CA, USA) software.
(In general: ADP-Glo turns the ADP formed in a reaction into a luminescent signal.)

The nature of data set [2]: Liver microsomal stability, human. The class given is in vitro ADME. To be noted: human liver microsomes, 1 μM (verapamil 0.5 μM). The method, then:
(§1) The liver microsomes of humans, rats, and mice were purchased from Merck (human, #M0567; rat, #M9066; mouse, #M9441). The metabolic stability of 6-shogaol and STCs (1 μM effective concentration; 5 μL) was mixed with liver microsomes (0.5 mg mL^−1; 445 μL) in a microcentrifuge tube. Verapamil (0.5 μM) was used as the positive control. The microsome and compound mixture were shaken on a plate shaker for 5 min to ensure homogeneity. NADPH (1 mM; 50 μL) was added to the mixture to start the metabolic reaction. The reaction mixture was incubated at 37 °C for 0, 3, 6, 15, 30, 45, and 60 min. The mixture (20 μL) was sampled and quenched with 180 μL of acetonitrile with internal standard (Donepezil 50 ng/mL) to terminate the metabolic reaction at each time point. Ultrapure water (80 μL) was added, and contents in the microcentrifuge tubes were centrifuged at 3800 rpm at 4 °C for 10 min. […] Each set of experiments was repeated three times in human, rat, and mouse liver microsomes. The concentration of the compounds versus time was plotted to determine the elimination rate constant (Kel). The intrinsic clearance (Clint) and half-life (t1/2) were calculated using the following equations.
Background: Microsomes from liver hold many membrane-bound enzymes, among them those of drug oxidation.

Data set [3] can be described thus: Liver microsomal stability, rat. To be noted: rat liver microsomes, 1 μM (verapamil 0.5 μM). It counts as in vitro ADME. The method, then:
as §1

Data set [4] can be described thus: Liver microsomal stability, mouse. The class given is in vitro ADME. To be noted: mouse liver microsomes, 1 μM (verapamil 0.5 μM). The method, then: as §1

T2 sequence (P49841 whole entry): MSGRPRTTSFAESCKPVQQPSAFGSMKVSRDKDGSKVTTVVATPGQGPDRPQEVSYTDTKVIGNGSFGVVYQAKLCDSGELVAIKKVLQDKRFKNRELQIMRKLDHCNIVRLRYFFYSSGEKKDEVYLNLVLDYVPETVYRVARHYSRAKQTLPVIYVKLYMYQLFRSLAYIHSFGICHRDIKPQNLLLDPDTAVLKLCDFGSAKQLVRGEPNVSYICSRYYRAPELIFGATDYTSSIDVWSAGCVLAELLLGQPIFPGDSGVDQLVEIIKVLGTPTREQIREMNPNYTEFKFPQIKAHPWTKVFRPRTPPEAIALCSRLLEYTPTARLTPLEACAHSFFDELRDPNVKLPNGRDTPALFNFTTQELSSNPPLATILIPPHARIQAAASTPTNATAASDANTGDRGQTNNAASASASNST
T1 sequence (Q14145 2-624 limits assumed): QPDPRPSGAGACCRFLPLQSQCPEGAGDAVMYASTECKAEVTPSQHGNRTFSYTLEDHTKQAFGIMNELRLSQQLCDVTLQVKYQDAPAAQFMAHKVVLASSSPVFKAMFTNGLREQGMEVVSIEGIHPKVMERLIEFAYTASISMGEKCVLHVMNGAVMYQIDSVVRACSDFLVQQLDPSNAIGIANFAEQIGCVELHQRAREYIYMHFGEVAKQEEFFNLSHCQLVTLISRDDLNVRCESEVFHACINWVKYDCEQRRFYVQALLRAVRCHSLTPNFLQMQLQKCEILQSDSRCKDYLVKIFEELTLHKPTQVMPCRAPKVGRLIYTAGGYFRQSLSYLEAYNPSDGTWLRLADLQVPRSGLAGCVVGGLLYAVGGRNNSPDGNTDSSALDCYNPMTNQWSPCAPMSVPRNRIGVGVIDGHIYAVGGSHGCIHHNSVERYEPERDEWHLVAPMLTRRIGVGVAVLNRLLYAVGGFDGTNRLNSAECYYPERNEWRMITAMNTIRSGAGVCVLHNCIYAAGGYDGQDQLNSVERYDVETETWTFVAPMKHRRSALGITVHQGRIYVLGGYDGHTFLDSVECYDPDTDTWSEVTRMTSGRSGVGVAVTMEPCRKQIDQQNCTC

For orientation: IC50 means the point on the concentration scale where inhibition reaches its midpoint. By half-life is commonly meant how long it takes for the measured level to halve. Lower therefore signals rapid decline. Consider `COc1cc(CCC(=O)/C=C/c2ccsc2)ccc1O` [STC1, (E)-5-(4-Hydroxy-3-methoxyphenyl)-1(thiophen-3-yl)pent-1-en-3-one], for which the EC (2-fold NQO1 induction) in data set [1] was found to be 4.19 ± 0.44 µM. Moreover, the values for the half-inhibitory concentration (IC50) at KEAP1-NRF2 interaction and on GSK-3β were 860 ± 110 nM and 420 ± 80 nM, respectively. The Clint was determined as 7.15 ± 1.24 mL/min/g liver in data set [2], 10.63 ± 1.25 mL/min/g liver in data set [3] and 11.24 ± 1.43 mL/min/g liver in data set [4]. In addition, the half-life at 1 μM amounted to 10.2 min in data set [2], 6.85 min in data set [3] and 6.47 min in data set [4].

Regarding `COc1cc(CCC(=O)/C=C/c2cc(Br)cs2)ccc1O` [STC4, (E)-5-(4-Hydroxy-3-methoxyphenyl)-1-(4-bromothiophen-2-yl)pent-1-en-3-one], the EC (2-fold NQO1 induction) in data set [1] is 0.43 ± 0.09 µM. The IC50 is 280 nM on KEAP1-NRF2 interaction and 130 nM at GSK-3β. The figures for the Clint in data set [2], in data set [3] and in data set [4] were 6.35 ± 1.79 mL/min/g liver, 8.79 ± 1.94 mL/min/g liver and 9.67 ± 1.23 mL/min/g liver, respectively. Besides, the half-life at 1 μM in data set [2] amounted to 11.5 min; in data set [3] it was 8.28 min; in data set [4] it was 7.52 min.

As to `COc1cc(CCC(=O)/C=C/c2sccc2C)ccc1O` [STC3, (E)-5-(4-Hydroxy-3-methoxyphenyl)-1-(3-methylthiophen-2-yl)pent-1-en-3-one], the EC (2-fold NQO1 induction) in data set [1] amounted to 1.84 ± 0.15 µM. Also, the values for the IC50 at KEAP1-NRF2 interaction and at GSK-3β were 540 nM and 240 nM, respectively. The Clint in data set [2] turned out to be 6.18 ± 1.34 mL/min/g liver; in data set [3], 9.65 ± 1.54 mL/min/g liver; in data set [4], 9.27 ± 2.14 mL/min/g liver. Also, the half-life at 1 μM was 11.8 min in data set [2], 7.54 min in data set [3] and 7.85 min in data set [4].

For `COc1cc(CCC(=O)/C=C/c2ccc(Br)s2)ccc1O` [STC6, (E)-5-(4-Hydroxy-3-methoxyphenyl)-1-(5-bromothiophen-2-yl)pent-1-en-3-one], in data set [1], the EC (2-fold NQO1 induction) came to 0.42 ± 0.11 µM. In addition, the IC50 on KEAP1-NRF2 interaction turned out to be 290 nM; at GSK-3β it was 140 nM. Moreover, the results for the Clint in data set [2], in data set [3] and in data set [4] were 5.32 ±1.08 mL/min/g liver, 8.17 ± 1.74 mL/min/g liver and 7.23 ± 1.34 mL/min/g liver, respectively. For the same compound, the half-life at 1 μM is 13.7 min in data set [2], 8.91 min in data set [3] and 10.1 min in data set [4].

In the case of `COc1cc(CCC(=O)/C=C/c2cccs2)ccc1O` [STC2, (E)-5-(4-Hydroxy-3-methoxyphenyl)-1-(thiophen-2-yl)pent-1-en-3-one], the EC (2-fold NQO1 induction) in data set [1] amounted to 2.65 ± 0.27 µM. The IC50 was found to be 630 nM at KEAP1-NRF2 interaction and 320 nM on GSK-3β. For the same compound, the Clint amounted to 6.85 ± 1.62 mL/min/g liver in data set [2], 9.46 ± 1.85 mL/min/g liver in data set [3] and 10.64 ± 1.66 mL/min/g liver in data set [4]. The results for the half-life at 1 μM in data set [2], in data set [3] and in data set [4] were 10.6 min, 7.69 min and 6.84 min, respectively.

Consider `CCc1ccc(/C=C/C(=O)CCc2ccc(O)c(OC)c2)s1` [STC7, (E)-5-(4-Hydroxy-3-methoxyphenyl)-1-(5-ethylthiophen-2-yl)pent-1-en-3-one], for which, in data set [1], the EC (2-fold NQO1 induction) was 1.48 ± 0.34 µM. Besides, the IC50 is 350 nM at KEAP1-NRF2 interaction and 190 nM at GSK-3β. Besides, the values for the Clint in data set [2], in data set [3] and in data set [4] were 6.27 ± 1.44 mL/min/g liver, 8.52 ± 1.16 mL/min/g liver and 7.85 ± 2.51 mL/min/g liver, respectively. The results for the half-life at 1 μM in data set [2], in data set [3] and in data set [4] were 11.6 min, 8.54 min and 9.27 min, respectively.

The record behind these values is article PMC9951879, “Synthesis of New Shogaol Analogues as NRF2 Activators and Evaluation of Their Anti-Inflammatory Activity, Modes of Action and Metabolic Stability” (Antioxidants, 2023).
